Experiments:
Assay type in all cases: cell-based, human
MCF7 cells [1] = assay: Growth inhibition, CellTiter-Glo 2.0 (ATP); details: MCF7, 10 ng ml^−1, 6 days
Protocol: (§1) Parental and CRISPR-edited tumour cells were seeded in a cell density of 1800 (DU145), 2000 (PC-3), or 10,000 (MCF7) per well in 96-well CellCarrier plate (PelkinElmer, #6005550) filled with 50 µl culture media + 10% FBS. After 20–24 h incubation, the cells were treated with 10 ng ml^−1 of recombinant human IFNγ (R&D Systems, 285-IF-100), 10 ng ml^−1 of recombinant human TNFα (R&D Systems, 210-TA-020/CF) or a combination of both, by adding an equal volume of the complete culture media containing the cytokines. After incubating for 6 days without media change, the CellTiter-Glo 2.0 (Promega, G9243) or CellTiter-Fluor (Promega, G6082) assay were performed according to manufacturer’ instructions. The luminescence or fluorescence (Ex: 380–400 nm, Em: 505 nm) were detected by Inifinte M1000 PRO (Tecan). For CellTiter-Fluor, triplicate wells without cells were included to determine background fluorescence and the signal average was used for background substraction.

DU145 cells = assay: Growth inhibition, CellTiter-Fluor (live-cell protease activity); set-up: scale not given here; details: 10 ng ml-1 each, 6-day
Protocol: as §1

MCF7 cells [2] = assay: as above; set-up: scale not given here; details: 10 ng ml-1 each, 6-day
Protocol: as §1

PC-3 cells = assay: as above; set-up: scale not given here; details: 10 ng ml-1 each, 6-day
Protocol: as §1

For TNFα, the “Growth inhibition of PTPN2- or STUB1-null cells” value (MCF7 cells [1]) was “could sensitize MCF7 breast tumour cell”, the “FC in live-cell protease activity relative to parental cells” value (DU145 cells; DU145 PTPN2 sgRNA, replicate 1) was 0.07 and the “FC in live-cell protease activity relative to parental cells” value (DU145 cells; DU145 PTPN2 sgRNA, replicate 2) was 0.13. The “FC in live-cell protease activity relative to parental cells” value (DU145 cells; DU145 PTPN2 sgRNA, replicate 3) was -0.00707, the “FC in live-cell protease activity relative to parental cells” value (DU145 cells; DU145 Parental, replicate 1) was -0.0322 and the “FC in live-cell protease activity relative to parental cells” value (DU145 cells; DU145 Parental, replicate 2) was 0.08. The “FC in live-cell protease activity relative to parental cells” value (DU145 cells; DU145 Parental, replicate 3) was -0.05, the “FC in live-cell protease activity relative to parental cells” value (DU145 cells; DU145 STUB1 sgRNA, replicate 1) was 0.0056 and the “FC in live-cell protease activity relative to parental cells” value (DU145 cells; DU145 STUB1 sgRNA, replicate 2) was 0.0106. For the same substance, the “FC in live-cell protease activity relative to parental cells” value (DU145 cells; DU145 STUB1 sgRNA, replicate 3) was 0.16, the “FC in live-cell protease activity relative to parental cells” value (DU145 cells; DU145 control sgRNA, replicate 1) was -0.0256 and the “FC in live-cell protease activity relative to parental cells” value (DU145 cells; DU145 control sgRNA, replicate 2) was -0.00666. The “FC in live-cell protease activity relative to parental cells” value (DU145 cells; DU145 control sgRNA, replicate 3) was -0.0248, the “FC in live-cell protease activity relative to parental cells” value (MCF7 cells [2]; MCF7 PTPN2 sgRNA, replicate 1) was -0.29 and the “FC in live-cell protease activity relative to parental cells” value (MCF7 cells [2]; MCF7 PTPN2 sgRNA, replicate 2) was -0.31. For the same substance, the “FC in live-cell protease activity relative to parental cells” value (MCF7 cells [2]; MCF7 PTPN2 sgRNA, replicate 3) was -0.32, the “FC in live-cell protease activity relative to parental cells” value (MCF7 cells [2]; MCF7 Parental, replicate 1) was 0.00519 and the “FC in live-cell protease activity relative to parental cells” value (MCF7 cells [2]; MCF7 Parental, replicate 2) was -0.01. For the same substance, the “FC in live-cell protease activity relative to parental cells” value (MCF7 cells [2]; MCF7 Parental, replicate 3) was 0.00479, the “FC in live-cell protease activity relative to parental cells” value (MCF7 cells [2]; MCF7 STUB1 sgRNA, replicate 1) was -0.18 and the “FC in live-cell protease activity relative to parental cells” value (MCF7 cells [2]; MCF7 STUB1 sgRNA, replicate 2) was -0.39. The “FC in live-cell protease activity relative to parental cells” value (MCF7 cells [2]; MCF7 STUB1 sgRNA, replicate 3) was -0.36, the “FC in live-cell protease activity relative to parental cells” value (MCF7 cells [2]; MCF7 control sgRNA, replicate 1) was -0.14 and the “FC in live-cell protease activity relative to parental cells” value (MCF7 cells [2]; MCF7 control sgRNA, replicate 2) was -0.16. For the same substance, the “FC in live-cell protease activity relative to parental cells” value (MCF7 cells [2]; MCF7 control sgRNA, replicate 3) was -0.18, the “FC in live-cell protease activity relative to parental cells” value (PC-3 cells; PC-3 PTPN2 sgRNA, replicate 1) was 0.08 and the “FC in live-cell protease activity relative to parental cells” value (PC-3 cells; PC-3 PTPN2 sgRNA, replicate 2) was -0.06. The “FC in live-cell protease activity relative to parental cells” value (PC-3 cells; PC-3 PTPN2 sgRNA, replicate 3) was 0.13, the “FC in live-cell protease activity relative to parental cells” value (PC-3 cells; PC-3 Parental, replicate 1) was 0.11 and the “FC in live-cell protease activity relative to parental cells” value (PC-3 cells; PC-3 Parental, replicate 2) was -0.05. The “FC in live-cell protease activity relative to parental cells” value (PC-3 cells; PC-3 Parental, replicate 3) was -0.07, the “FC in live-cell protease activity relative to parental cells” value (PC-3 cells; PC-3 STUB1 sgRNA, replicate 1) was 0.20 and the “FC in live-cell protease activity relative to parental cells” value (PC-3 cells; PC-3 STUB1 sgRNA, replicate 2) was 0.00375. The “FC in live-cell protease activity relative to parental cells” value (PC-3 cells; PC-3 STUB1 sgRNA, replicate 3) was -0.0246, the “FC in live-cell protease activity relative to parental cells” value (PC-3 cells; PC-3 control sgRNA, replicate 1) was 0.19 and the “FC in live-cell protease activity relative to parental cells” value (PC-3 cells; PC-3 control sgRNA, replicate 2) was 0.026. For the same substance, the “FC in live-cell protease activity relative to parental cells” value (PC-3 cells; PC-3 control sgRNA, replicate 3) was -0.06.

Reference: paper PMC9388626, “STUB1 is an intracellular checkpoint for interferon gamma sensing” (Scientific Reports, 2022)
